# In US20070010671A1, “Novel quinazoline derivatives and methods of treatment related to the use thereof” (priority 2003, published 2007):
# pIC50: −log10 of the molar value.
# Biological target: MCH receptor (Homo sapiens, UniProt Q99705)
# Assay: High throughput functional screening FLIPR/FDSS6000: inhibition of MCH-evoked intracellular Ca2+ changes
# Assay type: cell-based
# Conditions: class by percent of control at 10^−7 M or by IC50; read-out: class
# Procedure, shortened: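 Cells expressing a non-endogenous, constitutively active MCH receptor were loaded with 4 μM Fluo4-AM (with probenecid) for 1 hr at 37° C. Test compound was preincubated 3 min at 37° C before 50 nM MCH was added. The [Ca2+]i transient was read at Ex 488/Em 530 nm for 290 s.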
row,Compound,pIC50
1,"CN(C)c1nc(N[C@H]2CC[C@@H](NC(=O)c3ccc(Oc4ccc(F)cc4)nc3)CC2)nc2ccccc12 [Example 1059, N-(cis-4-{[4-(dimethylamino)quinazolin-2-yl]amino}cyclohexyl)-6-(4-fluorophenoxy)nicotinamide]",< 6.70
2,"CN(C)c1nc(N[C@H]2CC[C@@H](NC(=O)c3ccc(Oc4ccc(Cl)cc4)nc3)CC2)nc2ccccc12 [Example 1060, 6-(4-chlorophenoxy)-N-(cis-4-{[4-(dimethylamino)quinazolin-2-yl]amino}cyclohexyl)nicotinamide]",> 7.30
3,"CN(C)c1nc(N[C@H]2CC[C@@H](NC(=O)c3ccc(Oc4ccc(Br)cc4)nc3)CC2)nc2ccccc12 [Example 1061, 6-(4-bromophenoxy)-N-(cis-4-{[4-(dimethylamino)quinazolin-2-yl]amino}cyclohexyl)nicotinamide]",< 6.70
4,"CN(C)c1nc(N[C@H]2CC[C@@H](NC(=O)c3ccc(Oc4ccc(OC(F)(F)F)cc4)nc3)CC2)nc2ccccc12 [Example 1062, N-(cis-4-{[4-(dimethylamino)quinazolin-2-yl]amino}cyclohexyl)-6-[4-(trifluoromethoxy)phenoxy]nicotinamide]",< 6.70
5,"CN(C)c1nc(N[C@H]2CC[C@@H](NC(=O)c3ccc(Oc4cc(F)cc(F)c4)nc3)CC2)nc2ccccc12 [Example 1063, 6-(3,5-difluorophenoxy)-N-(cis-4-{[4-(dimethylamino)quinazolin-2-yl]amino}cyclohexyl)nicotinamide]",< 6.70
6,"CN(C)c1nc(N[C@H]2CC[C@@H](NC(=O)c3ccc(Oc4cccc(F)c4F)nc3)CC2)nc2ccccc12 [Example 1064, 6-(2,3-difluorophenoxy)-N-(cis-4-{[4-(dimethylamino)quinazolin-2-yl]amino}cyclohexyl)nicotinamide]",> 7.30
7,"CN(C)c1nc(N[C@H]2CC[C@@H](NC(=O)c3ccc(Oc4ccc(F)c(F)c4)nc3)CC2)nc2ccccc12 [Example 1065, 6-(3,4-difluorophenoxy)-N-(cis-4-{[4-(dimethylamino)quinazolin-2-yl]amino}cyclohexyl)nicotinamide]",> 7.30
8,"COc1cccc(Oc2ccc(C(=O)N[C@H]3CC[C@@H](Nc4nc(N(C)C)c5ccccc5n4)CC3)cn2)c1OC [Example 1066, 6-(2,3-dimethoxyphenoxy)-N-(cis-4-{[4-(dimethylamino)quinazolin-2-yl]amino}cyclohexyl)nicotinamide]",> 7.30
9,"COc1cc(Cl)ccc1Oc1ccc(C(=O)N[C@H]2CC[C@@H](Nc3nc(N(C)C)c4ccccc4n3)CC2)cn1 [Example 1068, 6-(4-chloro-2-methoxyphenoxy)-N-(cis-4-{[4-(dimethylamino)quinazolin-2-yl]amino}cyclohexyl)nicotinamide]",6.70 to 7.30
10,"CN(C)c1nc(N[C@H]2CC[C@@H](NC(=O)c3ccc(Oc4ccc(Cl)c(F)c4)nc3)CC2)nc2ccccc12 [Example 1069, 6-(4-chloro-3-fluorophenoxy)-N-(cis-4-{[4-(dimethylamino)quinazolin-2-yl]amino}cyclohexyl)nicotinamide]",> 7.30
11,"CN(C)c1nc(N[C@H]2CC[C@@H](NC(=O)c3ccc(Oc4ccc(F)c(Cl)c4)nc3)CC2)nc2ccccc12 [Example 1070, 6-(3-chloro-4-fluorophenoxy)-N-(cis-4-{[4-(dimethylamino)quinazolin-2-yl]amino}cyclohexyl)nicotinamide]",6.70 to 7.30
12,"COc1cc(OC)cc(Oc2ccc(C(=O)N[C@H]3CC[C@@H](Nc4nc(N(C)C)c5ccccc5n4)CC3)cn2)c1 [Example 1071, 6-(3,5-dimethoxyphenoxy)-N-(cis-4-{[4-(dimethylamino)quinazolin-2-yl]amino}cyclohexyl)nicotinamide]",6.70 to 7.30
13,"CN(C)c1nc(N[C@H]2CC[C@@H](NC(=O)c3ccc(Oc4cccc(Br)c4)nc3)CC2)nc2ccccc12 [Example 1072, 6-(3-bromophenoxy)-N-(cis-4-{[4-(dimethylamino)quinazolin-2-yl]amino}cyclohexyl)nicotinamide]",< 6.70
